Test system: circulating 4T1 cells
Assay: Cell death / caspase 3 activation in circulating 4T1 cells
Format: cell-based, Mouse
Method: FIG. 11. T12 targets circulating 4T1 cancer cells. A, Balb/c female mice were inoculated with 4T1 mouse breast cancer cells at mammary fat pads. At day 20 after cell inoculation mice were subjected to PET analysis for metastases detection. White arrows denote metastatic foci at the spinal cord. B, Balb/c female from A were either left untreated (Control), or were treated with T12 in drinking water from day 20. At day 35 blood was seeded in the presence of 6-thioguanine and circulating 4T1 cells selected and further cultured. Shown are phase contrast images of the resulting cultures acquired with an inverted microscope. […] C, circulating 4T1 cells recovered as in B and 4T1 cells were cultured in standard 2D cultures and subjected to RNA extraction, and RNA samples were analyzed by RT-qPCR. Shown are the relative quantities (RQ) of the indicated mRNAs of circulating 4T1 cells using levels from 4T1 cells as reference. […] Dead cells in culture media were quantified by measuring cell size using an automated cell counter (Moxi Z, Orflo). […] E, circulating 4T1 cells recovered as in B or 4T1 cells were cultured in ultra-low binding plates and treated with the indicated concentrations of T12 for 9 days, cells were lysed and analyzed by Western blot using antibodies specific for activated caspase 3. The levels of GAPDH were determined for loading control purposes. […]

Structure (SMILES): COc1ccc(-c2ccc(-c3cccc(C)c3)c(C)c2)c(CCC(=O)O)c1 [T12, 3-[4″-methoxy-3,2′-dimethyl-(1,1′;4′,1″)terphenyl-2″-yl] propionic acid]
- sensitivity to T12 after further induction of mesenchymal phenotype (4T1 cells inoculated into mice or cultured in low adherent dishes (3D cultures), FIG. 11): more sensitivity to T12
- sensitivity to T12: dead cells and activated caspase 3 (24 h (dead cells) or 9 days in ultra-low binding plates (caspase 3), FIG. 11D-E): more sensitive and underwent apoptotic cell death (caspase 3 activation)

— patent publication US20160184274A1, “Methods for inhibiting mesenchymal phenotype after epithelial-to-mesenchymal transition” (Fibrostatin, S.L., priority 2014, published 2016)
